{"source": "ChEMBL document CHEMBL1136507", "about": "“Imidazopyrimidines, potent inhibitors of p38 MAP kinase” (Bioorg Med Chem Lett, 2003)", "key": {"[1]": {"molecular_target": "Mitogen-activated protein kinase 14 (Mus musculus, UniProt P47811)", "sequence (P47811 whole entry)": "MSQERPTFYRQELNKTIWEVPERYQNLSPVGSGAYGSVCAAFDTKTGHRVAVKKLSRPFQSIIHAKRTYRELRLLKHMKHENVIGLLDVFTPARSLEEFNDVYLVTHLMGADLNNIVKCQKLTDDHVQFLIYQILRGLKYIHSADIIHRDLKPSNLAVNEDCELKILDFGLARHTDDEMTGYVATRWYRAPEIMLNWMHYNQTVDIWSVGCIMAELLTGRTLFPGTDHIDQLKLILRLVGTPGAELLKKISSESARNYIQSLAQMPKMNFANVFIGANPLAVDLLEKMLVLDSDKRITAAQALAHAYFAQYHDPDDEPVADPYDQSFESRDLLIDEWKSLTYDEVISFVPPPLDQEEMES", "assay": "Inhibition of murine p38 alpha kinase"}, "Mus musculus [2]": {"system": "Mus musculus", "assay": "Percentage inhibition against LPS-induced TNF-alpha production in mice at a 10 mg/kg dose", "assay_type": "functional"}, "Mus musculus [3]": {"system": "Mus musculus", "assay": "Percentage inhibition against LPS-induced TNF-alpha production in mice at a 2 mg/kg dose", "assay_type": "functional"}, "Mus musculus [4]": {"system": "Mus musculus", "assay": "Percentage inhibition against LPS-induced TNF-alpha production in mice at a 10 mg/kg dose; Not active", "assay_type": "functional, organism-based", "parameters": "dose 10 mg/kg"}, "MAP kinase p38": {"molecular_target": "MAP kinase p38 (Homo sapiens, UniProt O15264+Q15759+Q16539+P53778)", "assay": "Inhibition of LPS-induced p38-related TNF-alpha production in human peripheral blood mononuclear cells", "assay_type": "functional"}}, "note": "Calls of active or inactive are those of the source. The calls are words filed in the database; no cut-off is given here."}
{"smiles": "C[C@H](Nc1nccc(-c2c(-c3ccccc3)nc3nc(N)ccn23)n1)c1ccccc1", "values": [{"measurement": "IC50", "setting": "[1]", "result": 8, "unit": "nM"}, {"measurement": "inhibition in vivo at 10 mg/kg", "setting": "Mus musculus [2]", "result": 100, "unit": "%"}, {"measurement": "inhibition in vivo at 2 mg/kg", "setting": "Mus musculus [3]", "result": 83, "unit": "%"}]}
{"smiles": "COC[C@H](C)Nc1cc(-c2c(-c3ccccc3)nc3nc(N)ccn23)ccn1", "values": [{"measurement": "IC50", "setting": "[1]", "result": 2, "unit": "nM"}, {"measurement": "inhibition in vivo at 10 mg/kg", "setting": "Mus musculus [2]", "result": 93, "unit": "%"}]}
{"smiles": "Nc1ccn2c(-c3ccncc3)c(-c3ccc(F)cc3)nc2n1", "values": [{"measurement": "IC50", "setting": "[1]", "result": 570, "unit": "nM"}, {"measurement": "inhibition in vivo at 10 mg/kg", "setting": "Mus musculus [2]", "result": 97, "unit": "%"}]}
{"smiles": "Nc1ccn2c(-c3ccnc(N[C@H]4CCCc5ccccc54)c3)c(-c3ccccc3)nc2n1", "values": [{"measurement": "IC50", "setting": "[1]", "result": 8, "unit": "nM"}, {"measurement": "inhibition", "setting": "Mus musculus [4]", "result": "inactive"}]}
{"smiles": "Nc1ccn2c(-c3ccncn3)c(-c3ccccc3)nc2n1", "values": [{"measurement": "IC50", "setting": "[1]", "result": 990, "unit": "nM"}, {"measurement": "inhibition in vivo at 10 mg/kg", "setting": "Mus musculus [2]", "result": 73, "unit": "%"}, {"measurement": "IC50", "setting": "MAP kinase p38", "result": 304, "unit": "nM"}]}
{"smiles": "COc1nccc(-c2c(-c3ccccc3)nc3nc(N)ccn23)n1", "values": [{"measurement": "IC50", "setting": "[1]", "result": 210, "unit": "nM"}, {"measurement": "inhibition in vivo at 10 mg/kg", "setting": "Mus musculus [2]", "result": 87, "unit": "%"}, {"measurement": "IC50", "setting": "MAP kinase p38", "result": 90, "unit": "nM"}]}
{"smiles": "C[C@H](Nc1cc(-c2c(-c3ccccc3)nc3nc(N)ccn23)ccn1)c1ccccc1", "values": [{"measurement": "IC50", "setting": "[1]", "result": 1, "unit": "nM"}, {"measurement": "inhibition in vivo at 10 mg/kg", "setting": "Mus musculus [2]", "result": 96, "unit": "%"}, {"measurement": "IC50", "setting": "MAP kinase p38", "result": 2, "unit": "nM"}, {"measurement": "inhibition in vivo at 2 mg/kg", "setting": "Mus musculus [3]", "result": 34, "unit": "%"}]}
{"smiles": "COc1cc(N)[nH]c2nc(-c3ccc(F)cc3)c(-c3ccncc3)c1-2", "values": [{"measurement": "inhibition in vivo at 10 mg/kg", "setting": "Mus musculus [2]", "result": 75, "unit": "%"}]}
{"smiles": "C[C@@H](Nc1nccc(-c2c(-c3ccccc3)nc3nc(N)ccn23)n1)c1ccccc1", "values": [{"measurement": "IC50", "setting": "[1]", "result": 37, "unit": "nM"}, {"measurement": "inhibition in vivo at 10 mg/kg", "setting": "Mus musculus [2]", "result": 66, "unit": "%"}]}
{"smiles": "Fc1ccc(-c2[nH]c3ccc4[nH]c(Cc5ccccc5)nc4c3c2-c2ccncc2)cc1", "values": [{"measurement": "IC50", "setting": "[1]", "result": 22, "unit": "nM"}, {"measurement": "inhibition in vivo at 10 mg/kg", "setting": "Mus musculus [2]", "result": 70, "unit": "%"}]}
{"smiles": "CSc1nccc(-c2c(-c3ccccc3)nc3nc(N)ccn23)n1", "values": [{"measurement": "IC50", "setting": "[1]", "result": 457, "unit": "nM"}, {"measurement": "inhibition in vivo at 10 mg/kg", "setting": "Mus musculus [2]", "result": 23, "unit": "%"}, {"measurement": "IC50", "setting": "MAP kinase p38", "result": 28, "unit": "nM"}]}
{"smiles": "Nc1ccn2c(-c3ccnc(NCc4ccccc4)c3)c(-c3ccc(F)cc3)nc2n1", "values": [{"measurement": "IC50", "setting": "[1]", "result": 6, "unit": "nM"}, {"measurement": "inhibition in vivo at 10 mg/kg", "setting": "Mus musculus [2]", "result": 42, "unit": "%"}, {"measurement": "IC50", "setting": "MAP kinase p38", "result": 6, "unit": "nM"}]}
